Here are results for 10 compounds from patent US8912200B2, “Alkynyl substituted pyrimidinyl-pyrroles active as kinases inhibitors” (Nerviano Medical Sciences S.R.L., priority 2011, dated 2014).

Test [1] deals with JAK2 dependent human megakaryoblastic leukemia cell line SET-2. The experiment in a line: Cell proliferation assay (CellTiter-Glo, 72 hours). The settings on record: Homo sapiens, SET-2 cells. The test is classed as cell-based. Here is the method: The JAK2 dependent human megakaryoblastic leukemia cell line SET-2 (DSMZ, Braunschweig GERMANY) and the JAK2 independent human chronic myelogenous leukaemia cell line K562 (ECACC, Wiltshire, UK) were cultured in RPMI-1640 medium-Glutamax (Gibco BRL, Gaithesburg, Md., USA), supplemented with 10% fetal bovine serum (FBS) at 37° C. and 5% CO2.
Cell Proliferation Assay:
Approximately 5×10^3 cells were plated into 384 microtiter plate wells in 50 μL of growth media with different concentrations of inhibitors. The cells were incubated at 37° C. and 5% CO2 for 72 hours, then the plates were processed using CellTiter-Glo assay (Promega, Madison, Wis., USA) following the manufacturer's instruction. Briefly 25 μL/well reagent solution is added to each well and after 5 minutes shaking the micro-plates are read by Envision luminometer (PerkinElmer, Waltham, Mass., USA).
Data are analyzed by Symix Assay Explorer software (Symix Technologies Inc.) that provides sigmoidal fitting algorithm of the 8 points dilutions curves for IC50 determination.

The next test concerns the target T1, Lyn full length (Homo sapiens, UniProt P07948).
T1 construct: The assay has been performed using Lyn full length
The experiment in a line: Biochemical assay for inhibitors of Lyn (Src family) kinase activity. The settings on record: Lyn full length 1 nM, 25 μM ATP. The text has this:
Biochemical Assay for Inhibitors of Lck and Lyn (Src Family) Kinases Activity
Specific Lck and Lyn substrates are trans-phosphorylated by Lck and Lyn kinases in the presence of ATP traced with 33P-γ-ATP. At the end of the phosphorylation reaction, the unreacted ATP, cold and radioactive, is captured by an excess of dowex ion exchange resin that eventually settles by gravity to the bottom of the reaction plate. The supernatant is subsequently withdrawn and transferred into a counting plate that is then evaluated by β-counting.
Lyn Specific Assay Conditions
The assay has been performed using Lyn full length (accession number P07948 of UniProtKB/Swiss-Prot database).
Kinase buffer was composed of 50 mM HEPES pH 7.5 containing 3 mM MgCl2, 1 mM DTT, 3 μM Na3VO4, and 0.2 mg/mL BSA.
The Lyn kinase assay was run with a final enzyme concentration of 1 nM, in the presence of 25 μM ATP, 1.5 nM 33P-γ-ATP and 250 μM of substrate ABI 1 (Aminoacid sequence: EAIYAAPFAKKK—SEQ ID NO: 3). The peptidic substrate was purchased from American Peptide Company (Sunnyvale, Calif.).
(§1) For IC50 determination, test compounds are received as a 1 mM solution in 100% DMSO, distributed into 96 well plates: compounds are then plated into the first column of a microtiter plate (A1 to G1), 100 μL/well.
(§2) An automated station for serial dilutions (Biomek FX, Beckman) is used for producing 1:3 dilutions in 100% DMSO, from line A1 to A10, and for all the compounds in the column. Moreover, 4-5 copies of daughter plates are prepared by reformatting 5 μL of this first set of 100% DMSO dilution plates into 384 deep well-plates: one of these plates with the serial dilutions of test compounds will be thawed the day of the experiments, reconstituted at a 3× concentration with water and used in the IC50 determination assays. In a standard experiment, the highest concentration (3×) of all compounds is 30 μM, while the lowest one is 1.5 nM. Each 384 well-plate will contain at least one curve of the standard inhibitor staurosporine and reference wells (total enzyme activity vs. no enzymatic activity) for the Z′ and signal to background evaluation.
(§3) 384-well plates, V bottom (test plates) are prepared with 5 μL of the compound dilution (3×) and then placed onto a PlateTrak 12 robotized station (Perkin Elmer; the robot has one 384-tip pipetting head for starting the assay plus one 96-tip head for dispensing the resin) together with one reservoir for the Enzyme mix (3×) and one for the ATP mix (3×). At the start of the run, the robot aspirates 5 μL of ATP mix, makes an air gap inside the tips (3 μl) and aspirates 5 μL of JAK2 mix. The following dispensation into the plates plus 3 cycles of mixing, done by the robot itself, starts the kinase reaction. At this point, the correct concentrations are restored for all the reagents. The robot incubates the plates for 60 minutes at room temperature, and then stops the reaction by pipetting 60 μL of dowex resin suspension into the reaction mix. In order to avoid tip clogging, wide bore tips are used to dispense the resin suspension. Three cycles of mixing are done immediately after the addition of the resin. Another mixing cycle is performed after all the plates are stopped, this time using normal tips: the plates are then allowed to rest for about one hour in order to allow resin sedimentation. At this point, 27 μL of the supernatant are transferred into 384-Optiplates (Perkin-Elmer), with 50 μL of Microscint 40 (Perkin-Elmer); after 5 min of orbital shaking the plates are read on a Perkin-Elmer Top Count radioactivity counter.
Data are analyzed by an internally customized version of the SW package “Assay Explorer” that provides sigmoidal fitting of the ten-dilutions curves for IC50 determination in the secondary assays/hit confirmation routines.

The target of a further test is T2, JAK2 kinase domain (Homo sapiens, UniProt O60674).
T2 construct: commercially available JAK2 kinase domain; purchased Invitrogen, Eugene, Oreg
As to the kind of experiment: Biochemical assay for inhibitors of JAK kinase activity (JAK2, 33P-γ-ATP/dowex resin). The settings on record: JAK2 kinase domain 1 nM, 60 μM ATP.
Text: Biochemical Assay for Inhibitors of JAK Kinase Activity
Specific JAK2, JAK1 or JAK3 peptide substrates are trans-phosphorylated by JAK kinases in the presence of ATP traced with 33P-γ-ATP. At the end of the phosphorylation reaction, the unreacted ATP, cold and radioactive, is captured by an excess of dowex ion exchange resin that eventually settles by gravity to the bottom of the reaction plate. The supernatant is subsequently withdrawn and transferred into a counting plate that is then evaluated by β-counting.
500 g of wet resin (SIGMA, custom prepared resin DOWEX 1×8 200-400 mesh, 2.5 Kg) are weighed out and diluted 2 to 1 in 150 mM sodium formate, pH 3.00. The resin is allowed to settle down overnight and then the supernatant is discarded. After three washes as above over a couple of days, the resin is allowed to settle and two volumes (with respect to the resin volume) of 150 mM sodium formate buffer are added.
Kinase buffer was composed of 50 mM HEPES pH 7.5 containing 10 mM MgCl2, 2.5 mM DTT, 10 μM Na3VO4 and 0.2 mg/mL BSA.
JAK2 Specific Assay Conditions
The JAK2 kinase assay was run with a final enzyme concentration of 1 nM, in the presence of 60 μM ATP, 3 nM 33P-γ-ATP and 64 μM of substrate BioDBn*306 (Aminoacid sequence: LPLDKDYYVVREPGQ—SEQ ID NO: 1). The peptidic substrate was purchased from American Peptide Company (Sunnyvale, Calif.).
as §1, §2
as §3, with “counter. […]” for “counter.”

T1 sequence (P07948 whole entry): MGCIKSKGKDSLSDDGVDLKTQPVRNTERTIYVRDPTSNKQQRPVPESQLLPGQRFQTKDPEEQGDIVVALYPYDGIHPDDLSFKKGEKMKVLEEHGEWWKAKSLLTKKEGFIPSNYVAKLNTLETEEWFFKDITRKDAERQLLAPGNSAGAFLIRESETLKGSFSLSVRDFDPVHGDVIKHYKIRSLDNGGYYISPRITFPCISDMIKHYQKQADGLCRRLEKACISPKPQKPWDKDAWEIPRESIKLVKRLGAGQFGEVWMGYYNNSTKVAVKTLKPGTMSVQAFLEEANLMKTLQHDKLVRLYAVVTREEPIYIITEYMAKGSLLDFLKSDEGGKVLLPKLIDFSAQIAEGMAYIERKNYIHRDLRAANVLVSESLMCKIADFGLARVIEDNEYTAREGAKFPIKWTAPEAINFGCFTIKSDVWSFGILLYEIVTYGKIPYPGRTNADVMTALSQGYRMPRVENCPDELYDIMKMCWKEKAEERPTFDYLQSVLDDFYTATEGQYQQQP
T2 sequence (O60674 849-1124 limits assumed): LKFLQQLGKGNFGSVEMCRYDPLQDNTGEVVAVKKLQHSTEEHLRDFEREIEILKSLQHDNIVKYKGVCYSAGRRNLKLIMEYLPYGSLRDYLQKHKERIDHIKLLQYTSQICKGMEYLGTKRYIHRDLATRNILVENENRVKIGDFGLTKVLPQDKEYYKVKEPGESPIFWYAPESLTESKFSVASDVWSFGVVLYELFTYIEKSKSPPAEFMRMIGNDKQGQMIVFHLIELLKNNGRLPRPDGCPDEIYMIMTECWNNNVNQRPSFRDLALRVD

With `Cc1ccc(Cl)cc1-c1[nH]c(-c2nc(N)ncc2C#Cc2cccc(O)c2)cc1C(N)=O` [compound 2, 5-{2-Amino-5-[(3-hydroxyphenyl)ethynyl]pyrimidin-4-yl}-2-(5-chloro-2-methylphenyl)-1H-pyrrole-3-carboxamide], the concentration for half-maximal inhibition (IC50) in test [1] turned out to be 520 nM; on Lyn full length it was 6 nM; against JAK2 kinase domain, 2 nM.
The matching figures for `Cc1ccc(Cl)cc1-c1[nH]c(-c2nc(N)ncc2C#Cc2cccc(N)c2)cc1C(N)=O` [compound 4, 5-{2-amino-5-[(3-aminophenyl)ethynyl]pyrimidin-4-yl}-2-(5-chloro-2-methylphenyl)-1H-pyrrole-3-carboxamide]: 150 nM, 1 nM and 1 nM.
The like results for `Cc1ccc(Cl)cc1-c1[nH]c(-c2nc(N)ncc2C#Cc2ccccc2N)cc1C(N)=O` [compound 6, 5-{2-Amino-5-[(2-aminophenyl)ethynyl]pyrimidin-4-yl}-2-(5-chloro-2-methylphenyl)-1H-pyrrole-3-carboxamide] were, in that order, 240 nM, 3 nM and 1 nM.
The like results for `Cc1ccc(Cl)cc1-c1[nH]c(-c2nc(N)ncc2C#Cc2ccc(N)cc2)cc1C(N)=O` [compound 8, 5-{2-Amino-5-[(4-aminophenyl)ethynyl]pyrimidin-4-yl}-2-(5-chloro-2-methylphenyl)-1H-pyrrole-3-carboxamide] were, in that order, 140 nM, 2 nM and 1 nM.
Regarding `COc1ccc(N)cc1C#Cc1cnc(N)nc1-c1cc(C(N)=O)c(-c2cc(Cl)ccc2C)[nH]1` [compound 9, 5-{2-Amino-5-[(5-amino-2-methoxyphenyl)ethynyl]pyrimidin-4-yl}-2-(5-chloro-2-methylphenyl)-1H-pyrrole-3-carboxamide], the IC50 in test [1] was found to be 340 nM; against Lyn full length, 10 nM; on JAK2 kinase domain, 1 nM.
The matching figures for `Cc1ccc(Cl)cc1-c1[nH]c(-c2nc(N)ncc2C#Cc2ccc(N3CCN(C)CC3)cc2)cc1C(N)=O` [compound 11, 5-(2-Amino-5-{[4-(4-methylpiperazin-1-yl)phenyl]ethynyl}pyrimidin-4-yl)-2-(5-chloro-2-methylphenyl)-1H-pyrrole-3-carboxamide]: 90 nM, 8 nM and 4 nM.
For the compound `Cc1ccc(Cl)cc1-c1[nH]c(-c2nc(N)ncc2C#Cc2cccc(NC3CCOCC3)c2)cc1C(N)=O` [compound 13, 5-(2-Amino-5-{[3-(tetrahydro-2H-pyran-4-ylamino)phenyl]ethynyl}pyrimidin-4-yl)-2-(5-chloro-2-methylphenyl)-1H-pyrrole-3-carboxamide], the concentration for half-maximal inhibition (IC50) on Lyn full length was 8 nM; at JAK2 kinase domain it was 4 nM.
Regarding `Cc1ccc(Cl)cc1-c1[nH]c(-c2nc(N)ncc2C#Cc2cccc(NCCO)c2)cc1C(N)=O` [compound 15, 5-[2-Amino-5-({3-[(2-hydroxyethyl)amino]phenyl}ethynyl)pyrimidin-4-yl]-2-(5-chloro-2-methylphenyl)-1H-pyrrole-3-carboxamide], the IC50 is 240 nM in test [1], 5 nM at Lyn full length and 2 nM against JAK2 kinase domain.
As for `COc1ccc(NC2CCN(C)CC2)cc1C#Cc1cnc(N)nc1-c1cc(C(N)=O)c(-c2cc(Cl)ccc2C)[nH]1` [compound 22, 5-[2-Amino-5-({2-methoxy-5-[(1-methylpiperidin-4-yl)amino]phenyl}ethynyl)pyrimidin-4-yl]-2-(5-chloro-2-methylphenyl)-1H-pyrrole-3-carboxamide], the half-inhibitory concentration (IC50) in test [1] amounted to 430 nM; on Lyn full length, 9 nM; against JAK2 kinase domain, 2 nM.
The matching figures for `Cc1ccc(Cl)cc1-c1[nH]c(-c2nc(N)ncc2C#Cc2cccc(CN3CCN(C)CC3)c2)cc1C(N)=O` [compound 24, 5-[2-Amino-5-({3-[(4-methylpiperazin-1-yl)methyl]phenyl}ethynyl)pyrimidin-4-yl]-2-(5-chloro-2-methylphenyl)-1H-pyrrole-3-carboxamide]: 330 nM, 5 nM and 2 nM.
